Source: patent US10005846B2, “Anti-transglutaminase 2 antibodies” (MEDICAL RESEARCH COUNCIL TECHNOLOGY, priority 2012, dated 2018)

What was measured:
[1] = biological target: T1, extracellular TG2 in human HK-2 cells (Homo sapiens, UniProt P21980); assay: Extracellular TG activity in HK-2 cells, biotin cadaverine incorporation into fibronectin (Example 1); format: cell-based; settings: 400 μM of the site-specific pan TG inhibitor 1,3-Dimethyl-2-[(2-oxo-propyl)thio]imidazolium chloride
T1 construct: endogenous in cells; host or cells: HK-2 (kidney proximal tubular epithelium)
T1 sequence (P21980 1-687): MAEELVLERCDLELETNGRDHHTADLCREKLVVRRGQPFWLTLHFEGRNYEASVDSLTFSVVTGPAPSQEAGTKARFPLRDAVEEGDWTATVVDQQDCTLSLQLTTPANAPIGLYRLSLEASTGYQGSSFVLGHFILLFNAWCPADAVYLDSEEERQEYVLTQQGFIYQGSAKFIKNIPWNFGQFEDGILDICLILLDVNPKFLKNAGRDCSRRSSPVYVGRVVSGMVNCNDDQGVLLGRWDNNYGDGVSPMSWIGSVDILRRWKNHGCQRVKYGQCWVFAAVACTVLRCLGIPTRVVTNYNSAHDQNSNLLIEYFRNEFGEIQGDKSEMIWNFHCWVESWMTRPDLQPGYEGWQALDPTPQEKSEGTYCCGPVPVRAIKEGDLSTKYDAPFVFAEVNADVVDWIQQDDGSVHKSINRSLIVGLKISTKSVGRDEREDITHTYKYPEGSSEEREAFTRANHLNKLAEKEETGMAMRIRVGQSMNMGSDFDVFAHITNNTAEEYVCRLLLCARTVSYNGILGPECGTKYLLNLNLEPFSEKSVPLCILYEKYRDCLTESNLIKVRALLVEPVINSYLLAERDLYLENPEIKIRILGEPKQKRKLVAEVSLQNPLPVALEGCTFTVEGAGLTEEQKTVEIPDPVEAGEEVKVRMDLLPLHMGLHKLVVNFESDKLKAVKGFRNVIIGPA
Protocol: HK2 cells were plated onto fibronectin and incubated for 2 hours in the presence of 0.1M biotin cadaverine with either 4 ng/μl of human anti-TG2 antibody (AB1) (part A), 4 ng/μl of human anti-TG2 antibody (DC1) (part B) or 400 μM of the site-specific pan TG inhibitor 1,3-Dimethyl-2-[(2-oxo-propyl)thio]imidazolium chloride. […] Changes in optical density were measured at 450 nm in a 96 well plate reader. Data represents mean OD at 450 nm corrected to 1 mg of cell protein. n=6 wells per experimental group.
Extracellular TG activity was measured by modified cell ELISA. HK-2 epithelial cells were harvested using 0.1M EDTA or 0.25% trypsin/EDTA and plated at a density of 8×10^4 cells/well in serum free medium onto a 96 well plate that had been coated overnight with 100 μl/well of fibronectin (5 μg/ml in 50 mM Tris-HCl pH 7.4) (Sigma, Poole UK). Cells were allowed to attach for 2.5 h at 37° C. in the presence of the 0.1 mM biotin cadaverine [N-(5 amino pentyl biotinamide) trifluoroacetic acid] (Molecular Probes, Eugene Oreg., USA). Plates were washed twice with 3 mM EDTA/PBS and cells removed with 0.1% (w/v) deoxycholate in 5 mM EDTA/PBS. The supernatant was collected and used for protein determination. […] The reaction was stopped with 50 μl 2.5 M H2SO4 and the absorbance read at 450 nm.

WI-38 cells = assay: Scratch wound assay in WI-38 cells; format: cell-based, human; settings: serum free media; Cytochalasin D 0.1 μM, R281 100 μM, Z DON 10 μM and 100 μM, Cub7402 5 μg/ml
Protocol: WI-38 cells (normal human lung fibroblasts ATCC cat#CCL-75) were plated in a 96 well Image Lock plate (Essen cat#4379) at 2×10^4/well in αMEM media (Life Technologies cat#32561) with 10% FBS and grown O/N to >97% confluence. Cells were washed 2× with αMEM media without serum and a scratch wound was generated using an Essen Wound Maker and the manufacturers protocol. The media was removed and replaced with 95 μl/well serum free media. Controls and test antibodies were added to the wells. The plate was placed in an Essen Incucyte and the closure of the wound was analysed using the scratch wound protocol.
Cytochalasin D was used as an assay control at 0.1 μM. R281, a small molecule non-specific transglutaminase inhibitor, was tested at 100 μM. Z DON, a peptide non reversible transglutaminase inhibitor was tested at 10 μM and 100 μM. The commercially available TG2 antibody Cub7402 (ABcam cat#ab2386) was tested at 5 μg/ml. Antibodies of the invention were tested on at least three occasions at various concentrations as indicated. In all experiments controls were Cytochalasin D at 0.1 uM and ZDON at two concentrations to show a dose dependant effect.

SMILES | inhibition of extracellular TG activity relative to AB1 and DC1 [1] | effect on wound closure (WI-38 cells)
CC(=O)CSc1n(C)cc[n+]1C.[Cl-] [1,3-Dimethyl-2-[(2-oxo-propyl)thio]imidazolium chloride, reference compound] | comparable | 
C=C1[C@@H](C)[C@H]2[C@H](Cc3ccccc3)NC(=O)[C@]23[C@H](OC(C)=O)/C=C/[C@@](C)(O)C(=O)[C@@H](C)C/C=C/[C@H]3[C@@H]1O [Cytochalasin D, reference compound] |  | inhibited wound closure
